Laboratory results reported in the supplement of paper PMC10307832.

Tests used:
Experiment in all cases: relative viability (nuclei count vs DMSO), 5 days (fraction); higher = more cells survive
201T = system: 201T
Outline: (§1)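 After 5 days of treatment, lung cancer cells in 1536-well plates were fixed and stained in a single step (final 0.05% Triton X-100, 1% formaldehyde, 1 ug/ml Hoechst) and their nuclei counted on 4× images. Treatment had been applied by pin tool the day after seeding as one drug alone or as a fixed anchor-drug dose with five library-drug doses (not always all listed) in √10 steps. Relative viability is the nuclei count of treated wells divided by that of vehicle wells, and values are medians of duplicate plates.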

A-427 = system: A-427
Outline: as §1

COR-L 105 = system: COR-L 105
Outline: as §1

COR-L23 = system: COR-L23
Outline: as §1

EKVX = system: EKVX
Outline: as §1

HARA = system: HARA
Outline: as §1

HCC-15 = system: HCC-15
Outline: as §1

HCC-44 = system: HCC-44
Outline: as §1

HCC-827 = system: HCC-827
Outline: as §1

LCLC-103H = system: LCLC-103H
Outline: as §1

LK-2 = system: LK-2
Outline: as §1

NCI-H1437 = system: NCI-H1437
Outline: as §1

NCI-H1666 = system: NCI-H1666
Outline: as §1

NCI-H1792 = system: NCI-H1792
Outline: as §1

NCI-H1975 = system: NCI-H1975
Outline: as §1

NCI-H23 = system: NCI-H23
Outline: as §1

NCI-H441 = system: NCI-H441
Outline: as §1

NCI-H520 = system: NCI-H520
Outline: as §1

NCI-H596 = system: NCI-H596
Outline: as §1

NCI-H650 = system: NCI-H650
Outline: as §1

NCI-H838 = system: NCI-H838
Outline: as §1

SK-MES-1 = system: SK-MES-1
Outline: as §1

For COc1cc(N2CCC(C(N)=O)CC2)ccc1Nc1nc(N)c(Cl)c(Nc2ccccc2S(=O)(=O)C(C)C)n1 [HG-5-88-01] + Cc1nc(NC(=O)N2CCC[C@H]2C(N)=O)sc1-c1ccnc(C(C)(C)C(F)(F)F)c1 [Alpelisib] (partner 2 µM), the relative viability (201T; first compound 0.04 µM) was 0.99, the relative viability (201T; first compound 0.1265 µM) was 1.06 and the relative viability (201T; first compound 0.4 µM) was 1.06. For the same compound, the relative viability (201T; first compound 1.265 µM) was 0.974, the relative viability (201T; first compound 4 µM) was 1.09 and the relative viability (A-427; first compound 0.04 µM) was 1.07. It also gave a relative viability (A-427; first compound 0.1265 µM) of 1.12, a relative viability (A-427; first compound 0.4 µM) of 1.16 and a relative viability (A-427; first compound 1.265 µM) of 1.12. It also gave a relative viability (A-427; first compound 4 µM) of 0.959, a relative viability (COR-L 105; first compound 0.04 µM) of 0.955 and a relative viability (COR-L 105; first compound 0.1265 µM) of 1.1. It also gave a relative viability (COR-L 105; first compound 0.4 µM) of 0.971, a relative viability (COR-L 105; first compound 1.265 µM) of 0.606 and a relative viability (COR-L 105; first compound 4 µM) of 0.711. For the same compound, the relative viability (COR-L23; first compound 0.04 µM) was 0.774, the relative viability (COR-L23; first compound 0.1265 µM) was 0.79 and the relative viability (COR-L23; first compound 0.4 µM) was 0.68. It also gave a relative viability (COR-L23; first compound 1.265 µM) of 0.524, a relative viability (COR-L23; first compound 4 µM) of 0.462 and a relative viability (EKVX; first compound 0.04 µM) of 0.888. It also gave a relative viability (EKVX; first compound 0.1265 µM) of 0.914, a relative viability (EKVX; first compound 0.4 µM) of 0.823 and a relative viability (EKVX; first compound 4 µM) of 0.814. For the same compound, the relative viability (HARA; first compound 0.04 µM) was 0.938, the relative viability (HARA; first compound 0.1265 µM) was 0.777 and the relative viability (HARA; first compound 0.4 µM) was 0.742. It also gave a relative viability (HARA; first compound 1.265 µM) of 0.779, a relative viability (HARA; first compound 4 µM) of 0.799 and a relative viability (HCC-15; first compound 0.04 µM) of 0.925. The relative viability (HCC-15; first compound 0.1265 µM) was 0.865, the relative viability (HCC-15; first compound 0.4 µM) was 0.936 and the relative viability (HCC-15; first compound 1.265 µM) was 0.832. For the same compound, the relative viability (HCC-15; first compound 4 µM) was 0.775, the relative viability (HCC-44; first compound 0.04 µM) was 0.858 and the relative viability (HCC-44; first compound 0.1265 µM) was 0.824. For the same compound, the relative viability (HCC-44; first compound 0.4 µM) was 0.701, the relative viability (HCC-44; first compound 1.265 µM) was 0.68 and the relative viability (HCC-44; first compound 4 µM) was 0.471. For the same compound, the relative viability (HCC-827; first compound 0.04 µM) was 1.04, the relative viability (HCC-827; first compound 0.1265 µM) was 1.01 and the relative viability (HCC-827; first compound 0.4 µM) was 1.05. The relative viability (HCC-827; first compound 1.265 µM) was 0.849, the relative viability (HCC-827; first compound 4 µM) was 0.353 and the relative viability (LCLC-103H; first compound 0.04 µM) was 0.938. For the same compound, the relative viability (LCLC-103H; first compound 0.1265 µM) was 0.968, the relative viability (LCLC-103H; first compound 0.4 µM) was 0.949 and the relative viability (LCLC-103H; first compound 1.265 µM) was 0.907. For the same compound, the relative viability (LCLC-103H; first compound 4 µM) was 1.2, the relative viability (LK-2; first compound 0.04 µM) was 1.16 and the relative viability (LK-2; first compound 0.1265 µM) was 1.23. It also gave a relative viability (LK-2; first compound 0.4 µM) of 0.975, a relative viability (LK-2; first compound 1.265 µM) of 0.632 and a relative viability (LK-2; first compound 4 µM) of 1.8. For the same compound, the relative viability (NCI-H1437; first compound 0.04 µM) was 1.03, the relative viability (NCI-H1437; first compound 0.1265 µM) was 1.09 and the relative viability (NCI-H1437; first compound 0.4 µM) was 0.873. It also gave a relative viability (NCI-H1437; first compound 1.265 µM) of 0.964, a relative viability (NCI-H1437; first compound 4 µM) of 1.02 and a relative viability (NCI-H1666; first compound 0.04 µM) of 1. It also gave a relative viability (NCI-H1666; first compound 0.1265 µM) of 1.02, a relative viability (NCI-H1666; first compound 0.4 µM) of 0.816 and a relative viability (NCI-H1666; first compound 1.265 µM) of 0.706. For the same compound, the relative viability (NCI-H1666; first compound 4 µM) was 0.657, the relative viability (NCI-H1792; first compound 0.04 µM) was 0.874 and the relative viability (NCI-H1792; first compound 0.1265 µM) was 0.686. The relative viability (NCI-H1792; first compound 0.4 µM) was 0.654, the relative viability (NCI-H1792; first compound 1.265 µM) was 0.635 and the relative viability (NCI-H1792; first compound 4 µM) was 0.949. It also gave a relative viability (NCI-H1975; first compound 0.04 µM) of 0.597, a relative viability (NCI-H1975; first compound 0.1265 µM) of 0.62 and a relative viability (NCI-H1975; first compound 0.4 µM) of 0.555. The relative viability (NCI-H1975; first compound 1.265 µM) was 0.516, the relative viability (NCI-H1975; first compound 4 µM) was 0.264 and the relative viability (NCI-H23; first compound 0.04 µM) was 0.832. It also gave a relative viability (NCI-H23; first compound 0.1265 µM) of 0.738, a relative viability (NCI-H23; first compound 0.4 µM) of 0.67 and a relative viability (NCI-H23; first compound 1.265 µM) of 0.847. For the same compound, the relative viability (NCI-H23; first compound 4 µM) was 0.496, the relative viability (NCI-H441; first compound 0.04 µM) was 0.752 and the relative viability (NCI-H441; first compound 0.1265 µM) was 0.77. The relative viability (NCI-H441; first compound 0.4 µM) was 0.845, the relative viability (NCI-H441; first compound 1.265 µM) was 0.84 and the relative viability (NCI-H441; first compound 4 µM) was 0.893. It also gave a relative viability (NCI-H520; first compound 0.04 µM) of 0.85, a relative viability (NCI-H520; first compound 0.1265 µM) of 0.94 and a relative viability (NCI-H520; first compound 0.4 µM) of 0.884. For the same compound, the relative viability (NCI-H520; first compound 1.265 µM) was 1.01, the relative viability (NCI-H520; first compound 4 µM) was 1.03 and the relative viability (NCI-H596; first compound 0.04 µM) was 0.529. For the same compound, the relative viability (NCI-H596; first compound 0.1265 µM) was 0.477, the relative viability (NCI-H596; first compound 0.4 µM) was 0.587 and the relative viability (NCI-H596; first compound 1.265 µM) was 0.362. For the same compound, the relative viability (NCI-H596; first compound 4 µM) was 0.493, the relative viability (NCI-H650; first compound 0.04 µM) was 0.689 and the relative viability (NCI-H650; first compound 0.1265 µM) was 1.18. It also gave a relative viability (NCI-H650; first compound 0.4 µM) of 1.04, a relative viability (NCI-H650; first compound 1.265 µM) of 0.816 and a relative viability (NCI-H650; first compound 4 µM) of 0.8. For the same compound, the relative viability (NCI-H838; first compound 0.04 µM) was 1, the relative viability (NCI-H838; first compound 0.1265 µM) was 1.1 and the relative viability (NCI-H838; first compound 0.4 µM) was 0.917. For the same compound, the relative viability (NCI-H838; first compound 1.265 µM) was 0.9, the relative viability (NCI-H838; first compound 4 µM) was 0.896 and the relative viability (SK-MES-1; first compound 0.04 µM) was 0.925. The relative viability (SK-MES-1; first compound 0.1265 µM) was 0.582, the relative viability (SK-MES-1; first compound 0.4 µM) was 1.07 and the relative viability (SK-MES-1; first compound 1.265 µM) was 0.941. For the same compound, the relative viability (SK-MES-1; first compound 4 µM) was 0.86.
